# Earlier results in Sander's compilation of Henry's law constants (doi:10.1021/je0002282).
# Experiment: Henry solubility constant Hcp at 298.15 K (mol/(m3 Pa))
# Details: reference: Plyasunov and Shock (2001); cited value
row,Henry solubility constant Hcp,Structure (SMILES)
1,0.072,CCCCCC(C)=O [2-heptanone]
2,0.098,CCCCC(C)=O [2-hexanone]
3,0.037,CCCCCCCC(C)=O [2-nonanone]
4,0.058,CCCCCCC(C)=O [2-octanone]
5,0.019,CCCCCCCCCC(C)=O [2-undecanone]

# More lines, now with the values behind:
row,Structure (SMILES),Henry solubility constant Hcp
1,"CC(C)C(=O)C(C)C [2,4-dimethyl-3-pentanone]",0.024
2,"CC(C)CC(=O)CC(C)C [2,6-dimethyl-4-heptanone]",0.013
3,CCC(=O)C(C)C [2-methyl-3-pentanone],0.053
4,CCCC(C)=O [2-pentanone],0.13
5,"CC(=O)C(C)(C)C [3,3-dimethyl-2-butanone]",0.045
6,CCCC(=O)CC [3-hexanone],0.075
7,CC(=O)C(C)C [3-methyl-2-butanone],0.091
8,CCC(=O)CC [3-pentanone],0.11
9,CCCC(=O)CCC [4-heptanone],0.061
10,CC(=O)CC(C)C [4-methyl-2-pentanone],0.069
11,CC(C)=O [propanone],0.27
